Results published in US20010018182A1, “Methods of monitoring disease states and therapies using gene expression profiles” (Rosetta Inpharmatics, Inc., priority 1998, published 2001).

Assays:
[1] = system: yeast gene YOL031C expression; test: gene transcript array mRNA expression response to methotrexate titrations, Hill function fit; type: cell-based, Saccharomyces cerevisiae; settings: least squares fit of YOL031C expression response (log10 expression ratio); exposure levels 3, 6, 25, 50, 100, 200 μM
Source text: FIG. 2 illustrates an example of perturbation response profiles measured at discrete protein activity levels of dihydrofolate reductase. Specifically, the figure illustrates mRNA expression levels of 30 genes of the yeast Saccharomyces cerevisiae that, of the approximately 6000 genes in the genome of this yeast, had the largest expression changes in response to six different titrations of the drug methotrexate, which is known to act primarily by disrupting the activity of dihydrofolate reductase. These gene expression level measurements were made with gene transcript arrays, as described in Section 5.4. The perturbation response profiles in FIG. 2 can be interpolated according to the methods disclosed in Section 5.3, below, to provide perturbation response profiles for any activity level of dihydrofolate reductase, and are thereby correlated to efficacy of the drug methotrexate.
In model fitting, the perturbation responses are interpolated by approximating each by a single parameterized function. An exemplary model-fitting function appropriate for approximating transcriptional state data is the Hill function, which has adjustable parameters a, u0, and n. [formula]
the adjustable parameters are selected independently for each cellular constituent of the perturbation response. Preferably, the adjustable parameters are selected so that for each cellular constituent the sum of the squares of the distances H(pl) from Rk(Pl) is minimized. This preferable parameter adjustment method is known in the art as a least squares fit of H( ) to Rk( ). Other possible model functions are based on polynomial fitting, for example by various known classes of polynomials.
Model fitting with a Hill function is illustrated with respect to FIGS. 2 and 3. As discussed, FIG. 2 illustrates an example of perturbation by methotrexate and identified by measurement. […]

[2] = system: yeast Saccharomyces cerevisiae; test: growth defect of yeast on methotrexate drug exposure; type: cell-based; settings: 100 μM titration of methotrexate

Q: What does the source list for `CN(Cc1cnc2nc(N)nc(N)c2n1)c1ccc(C(=O)N[C@@H](CCC(=O)O)C(=O)O)cc1` [methotrexate]?
A: Hill function parameter a [1]: −0.61; Hill function parameter log10(u0) [1]: 1.26; Hill function parameter n [1]: 2; growth defect [2]: 50%
